From patent US20030185914A1, “Process for isolating artemisinin from artemisia annua” (priority 2002, published 2003)

Assay: Partitioning of pure artemisinin between hexane and aqueous ethanol (1:1 v/v), layers quantified by TLC
Type: physicochemical
Method: To select an efficient solvent for extraction of artemisinin different solvents systems were tested. For this 10 g of dry powdered leaves of Artemisia annua were extracted with methanol, 20% aqueous methanol, ethanol, 20% aqueous ethanol or hexane as a solvent individually in separate tubes. 10 ml of the solvent was taken out of the tube at 2, 4 and 6 h of incubation. The fraction was evaporated to dryness on a water bath, extract was solubilized in 2.0 ml solvent and spots (5 μl) were loaded on a TLC plate along with pure artemisinin dissolved in the respective solvent @ 1 mg/ml taken as controls. The TLC was carried out in a glass TLC tank saturated with the mobile phase hexane:diethyl ether (1:1), plates were developed to a height of 15 cm. Later plates were dried and spots were visualized by immersing the plates in a developing reagent (glacial acetic acid:sulfuric acid:anisaldehyde, 50:1:0.5), followed by heating the plate at 110° C. for 15 minutes or until pink spots of artemisinin appeared. For quantification, TLC spots corresponding to artemisinin were scanned at 540 and 610 nm dual wavelength mode of TLC scanner. It is clear from the table that pure ethanol and methanol rapidly extract the artemisinin as compared to hexane, however after a certain period of time concentration of artemisinin starts diminishing in methanol and ethanol extracts in contrast to hexane extract possibly because of decomposition or transformation of artemisinin into another unknown compound. Mixing of water in methanol caused a severe decay of artemisinin extraction. Ethanol was more efficient for extracting more artemisinin in less time period as compared to methanol and hexane both. On the basis of lower cost and rapid extraction efficiency ethanol will be a suitable solvent.
Pure artemisinin (0.2 g) was dissolved in different test tubes containing 1:1 (v/v) mixture of two non-miscible solvents, hexane and aqueous ethanol (i.e. ethanol mixed in water), where concentration of ethanol varied from 20 to 80%. After completely solubilizing the artemisinin in the mixture, two layers of hexane and ethanol were separated with the help of a separating funnel. The individual layer from different test tube was tested for the presence of artemisinin content by TLC as in example 1. The results showing the % fraction of artemisinin partitioned between the hexane and aqueous ethanolic layers separated from each tube are given in the Table -2.

[1] = Hexane:20% aqueous-ethanol (1:1 v/v)
[2] = Hexane:40% aqueous-ethanol (1:1 v/v)
[3] = Hexane:60% aqueous-ethanol (1:1 v/v)
[4] = Hexane:80% aqueous-ethanol (1:1 v/v)

C[C@@H]1CC[C@H]2[C@@H](C)C(=O)O[C@@H]3O[C@@]4(C)CC[C@@H]1[C@]32OO4 [artemisinin]
% artemisinin in ethanol layer [1]: 100%
% artemisinin in hexane layer [1]: 0%
% artemisinin in ethanol layer [2]: 90%
% artemisinin in hexane layer [2]: 10%
% artemisinin in ethanol layer [3]: 30%
% artemisinin in hexane layer [3]: 70%
% artemisinin in ethanol layer [4]: 0%
% artemisinin in hexane layer [4]: 100%
